Data as given in patent US12568972B2, “Pyridazinol compounds and derivatives, preparation methods, herbicidal compositions and applications thereof” (Qingdao Kingagroot Chemical Compound Co., Ltd., priority 2018, dated 2026).

Experiments:
Test in all cases: Post-emergence test, weed control effect
Assay type in all cases: in vivo
Setaria viridis = conditions: 504 h, after 3 weeks, fresh weight inhibition, read-out: activity level of harmful plant destruction (growth inhibition rate), Setaria viridis
In short: (§1)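 Scores use a 0 (no effect) to 10 (dead) scale of fresh-weight inhibition, assessed 3 weeks after spraying. Treatment was at the 2-3 leaf stage, 2-3 weeks post-sowing, using acetone/Tween-80/water solutions with 80% vegetable oil methyl ester synergist at 1500 g/ha.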

Chenopodiaceae = conditions: after 3 weeks
In short: as §1

Galium aparine = conditions: 504 h, after 3 weeks, fresh weight inhibition, read-out: activity level of harmful plant destruction (growth inhibition rate), Galium aparine
In short: as §1

Veronica polita = conditions: after 3 weeks
In short: as §1

Echinochloa crus-galli = conditions: 504 h, after 3 weeks, fresh weight inhibition, read-out: activity level of harmful plant destruction (growth inhibition rate), Echinochloa crus-galli
In short: as §1

Amaranthus retroflexus = conditions: after 3 weeks
In short: as §1

Rorippa indica = conditions: after 3 weeks
In short: as §1

[1] = 504 h, fresh weight inhibition, read-out: activity level of harmful plant destruction (growth inhibition rate), Chenopodiaceae
[2] = Veronica polita, 504 h, fresh weight inhibition, read-out: activity level of harmful plant destruction (growth inhibition rate), Veronica polita
[3] = Rorippa indica, 504 h, fresh weight inhibition, read-out: activity level of harmful plant destruction (growth inhibition rate), Rorippa indica

Question: With `CCCSC(=O)Oc1cc(C(F)(F)F)nnc1-c1ccc(F)cc1` [Compound 1-43] as the molecule, how does the inhibition at 150 g/ha (Setaria viridis; Dose 150 g/ha) read?
Answer: Its inhibition at 150 g/ha is 100%.

Question: What about the inhibition at 150 g/ha (Chenopodiaceae; 504 h, Dose 150 g/ha, fresh weight inhibition, read-out: activity level of harmful plant destruction (growth inhibition rate), Chenopodiaceae) of the same molecule?
Answer: The inhibition at 150 g/ha was 100%.

Question: And the “weed control effect, Chenopodiaceae (activity level)” value (Chenopodiaceae; Dose 3000 g/ha)?
Answer: Its value is 10.

Question: What about the inhibition at 150 g/ha (Galium aparine; Dose 150 g/ha) of the same molecule?
Answer: Its inhibition at 150 g/ha is 100%.

Question: What about the “weed control effect, Veronica polita (activity level)” value (Veronica polita; Dose 3000 g/ha) of the same molecule?
Answer: The value was 10.

Question: What about the inhibition at 150 g/ha (Veronica polita; Veronica polita, 504 h, Dose 150 g/ha, fresh weight inhibition, read-out: activity level of harmful plant destruction (growth inhibition rate), Veronica polita) of the same molecule?
Answer: The inhibition at 150 g/ha was 100%.

Question: And the inhibition at 150 g/ha (Echinochloa crus-galli; Dose 150 g/ha)?
Answer: The inhibition at 150 g/ha was 100%.

Question: What about the “weed control effect, Amaranthus retroflexus (activity level)” value (Amaranthus retroflexus; Dose 3000 g/ha) of the same molecule?
Answer: Its value is 10.

Question: What about the “weed control effect, Rorippa indica (activity level)” value (Rorippa indica; Dose 3000 g/ha) of the same molecule?
Answer: Its value is 10.

Question: What about the inhibition at 150 g/ha (Rorippa indica; Rorippa indica, 504 h, Dose 150 g/ha, fresh weight inhibition, read-out: activity level of harmful plant destruction (growth inhibition rate), Rorippa indica) of the same molecule?
Answer: Its inhibition at 150 g/ha is 100%.

Question: For `Oc1cc(C(F)(F)F)nnc1-c1ccc(Cl)cc1` [Compound 739], which inhibition at 300 g/ha (Setaria viridis) is on record?
Answer: The inhibition at 300 g/ha was 100%.

Question: What about the inhibition at 300 g/ha (Chenopodiaceae; [1]) of the same molecule?
Answer: The inhibition at 300 g/ha was 100%.

Question: What about the “weed control effect (activity level), Chenopodiaceae” value (Chenopodiaceae; Dose 3000 g/ha) of the same molecule?
Answer: The value was 10.

Question: And the inhibition at 300 g/ha (Galium aparine)?
Answer: The inhibition at 300 g/ha was 80 to 90%.

Question: What about the “weed control effect (activity level), Veronica polita” value (Veronica polita; Dose 3000 g/ha) of the same molecule?
Answer: Its value is 10.

Question: And the inhibition at 300 g/ha (Veronica polita; [2])?
Answer: The inhibition at 300 g/ha was 100%.

Question: And the inhibition at 300 g/ha (Echinochloa crus-galli)?
Answer: Its inhibition at 300 g/ha is 100%.

Question: And the “weed control effect (activity level), Amaranthus retroflexus” value (Amaranthus retroflexus; Dose 3000 g/ha)?
Answer: The value was 10.

Question: What about the “weed control effect (activity level), Rorippa indica” value (Rorippa indica; Dose 3000 g/ha) of the same molecule?
Answer: Its value is 10.

Question: And the inhibition at 300 g/ha (Rorippa indica; [3])?
Answer: Its inhibition at 300 g/ha is 100%.

Question: Which results are given for `Oc1cc(C(F)(F)F)nnc1-c1cccnc1F` [Compound 733]?
Answer: inhibition at 300 g/ha (Setaria viridis): 100%; inhibition at 300 g/ha (Chenopodiaceae; [1]): 100%; weed control effect (activity level), Chenopodiaceae (Chenopodiaceae; dose 1000 g/ha): 10; inhibition at 300 g/ha (Galium aparine): 100%; inhibition at 300 g/ha (Veronica polita; [2]): 100%; weed control effect (activity level), Veronica polita (Veronica polita; dose 1000 g/ha): 10; inhibition at 300 g/ha (Echinochloa crus-galli): 100%; weed control effect (activity level), Amaranthus retroflexus (Amaranthus retroflexus; dose 1000 g/ha): 10; inhibition at 300 g/ha (Rorippa indica; [3]): 100%; weed control effect (activity level), Rorippa indica (Rorippa indica; dose 1000 g/ha): 10
